The text below walks through data of patent US20060229364A1, “Antiviral compositions and methods of use” (3M Innovative Properties Company, priority 2005, published 2006).

This assay has as its system Type 1 herpes virus. Nature of the assay: Another mouse study with neat ester (Example 4), treatment from 24 hours post-virus inoculum. In kind it is in vivo, mice. As to conditions: neat composition applied 24 hours post-virus inoculum, 3 times daily for 5 days. The source says:
Each lesion was assigned a score ranging from 0 (normal skin) to 4 (maximal lesion intensity) defined as “Lesion score”, and two measurements, a vertical length and a horizontal length, were taken of each lesion daily from days 1 through 10. These measurements were multiplied together and the “square area” recorded, defined as “Lesion Size”. The lesion scoring was done by technicians who are unaware of which group of animals they are examining in order to eliminate bias. The occurrence of new, satellite, lesions (e.g., another lesion located anywhere other than the site of the intial lesion) were also noted during this 10-day period. The mean of the lesions score and the lesions size was calculated based on the average of the measurements taken on the eight mice.
Another mouse study was performed using propylene glycol monolaurate (Capmul PG-12) in a neat composition. The ester was applied 24 hours post-virus inoculum 3 times daily for 5 days. […] The mean day 7 lesion size was 3.1 mm2 compared to 64.4 mm2 for petrolatum vehicle control. The day 7 mean lesion score was 0.2 compared to 1.5 for a control sample containing petrolatum without an antimicrobial.

For propylene glycol monolaurate, the “day 7 mean lesion score” value came to 0.2; the “mean day 7 lesion size” value amounted to 3.1 mm2; the “reduction in lesion score and size compared to a placebo ointment (in words)” value is “statistically significant reduction”.
